For 23 compounds, AC50 results are on record in US9108921B2, “Therapeutic compounds and compositions” (AGIOS PHARMACEUTICALS, INC, priority 2014, dated 2015).

A word on the AC50: it is the concentration giving half of the maximal activity seen. Lower therefore signals greater potency.

The target of one assay is PKR R510Q (Homo sapiens, UniProt P30613, R510Q). The experiment in a line: PKR Mutant Assay, AC50 against PKR R510Q. The class given is biochemical. Particulars: mutant PKR R510Q enzyme. The procedure, abridged: (§1)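 LDH-coupled read-out: NADH (180 uM) consumption followed as absorbance change at 340 nm, room temperature, after ADP addition. Mutant PKR enzyme 80-400 ng/well, PEP 0.1-0.5 mM, ADP 0.22-1.65 mM; compound preincubated 60 min with all components except ADP.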

The next assay has as its target PKR R532W (Homo sapiens, UniProt P30613, R532W). The experiment in a line: PKR Mutant Assay, AC50 against PKR R532W. Type of assay: biochemical. Particulars: mutant PKR R532W enzyme. The procedure, abridged: as §1
The target of assay [1] is T1, PKR WT (Homo sapiens, UniProt P30613). Nature of the assay: PKR WT enzymatic AC50 assay. Type of assay: biochemical. Conditions: wild type PKR. The procedure, abridged: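 LDH-coupled NADH depletion read as A340 change at room temperature after ADP (0.22-1.65 mM) start. Compounds, tested from 100 μM final in 3-fold steps over 11 points with 1% DMSO, sat 60 min with enzyme (80-400 ng/well), PEP 0.1-0.5 mM and NADH 180 uM in Tris pH 7.5/KCl/MgCl2/DTT/BSA buffer.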

For assay [2], the target named is T1, PKR WT. The experiment in a line: PKR WT cell based AC50 assay. Particulars: wild type PKR.

T1 sequence (P30613 whole entry): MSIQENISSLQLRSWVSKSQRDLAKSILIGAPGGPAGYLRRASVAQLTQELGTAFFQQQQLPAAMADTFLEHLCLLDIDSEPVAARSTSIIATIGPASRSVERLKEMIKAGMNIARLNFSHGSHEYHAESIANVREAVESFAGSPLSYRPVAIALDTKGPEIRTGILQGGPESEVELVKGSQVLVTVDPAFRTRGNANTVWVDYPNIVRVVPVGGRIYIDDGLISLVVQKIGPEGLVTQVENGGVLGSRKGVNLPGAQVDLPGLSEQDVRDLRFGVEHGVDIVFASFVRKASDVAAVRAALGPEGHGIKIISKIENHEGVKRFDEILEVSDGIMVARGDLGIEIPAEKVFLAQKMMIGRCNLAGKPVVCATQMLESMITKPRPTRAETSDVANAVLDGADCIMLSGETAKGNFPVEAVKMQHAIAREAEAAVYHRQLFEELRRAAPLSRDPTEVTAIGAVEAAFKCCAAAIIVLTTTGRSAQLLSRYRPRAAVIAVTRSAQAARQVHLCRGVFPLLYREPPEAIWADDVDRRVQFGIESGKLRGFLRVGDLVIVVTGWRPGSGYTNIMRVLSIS
Chain of PKR R510Q (P30613 whole entry R510Q): as the sequence (P30613 whole entry) above, with R510Q counted along it
Chain of PKR R532W (P30613 whole entry R532W): as the sequence (P30613 whole entry) above, with R532W counted along it

Consider `COc1cccc(CC2(O)CCN(C(=O)c3ccc(NS(=O)(=O)c4cccc5cccnc45)cc3)CC2)c1` [Compound 135, N-(4-(4-hydroxy-4-(3-methoxybenzyl)piperidine-1-carbonyl)phenyl)quinoline-8-sulfonamide], for which the AC50 on PKR R510Q is 101 to 1000 nM; at PKR R532W, under 100 nM; on PKR WT [1], under 100 nM; on PKR WT [2], under 100 nM.
With `O=C(c1ccc(NS(=O)(=O)c2cccc3cccnc23)cc1OC(F)(F)F)N1CCC(O)(c2ccccc2Cl)CC1` [Compound 136, N-(4-(4-(2-chlorophenyl)-4-hydroxypiperidine-1-carbonyl)-3-(trifluoromethoxy)phenyl)quinoline-8-sulfonamide], the AC50 at PKR R510Q, at PKR R532W, at PKR WT [1] and at PKR WT [2] was under 100 nM throughout.
Take `CC(C)CC1(C=O)CCN(C(=O)c2ccc(NS(=O)(=O)c3cccc4cccnc34)cc2)CC1` [Compound 137, N-(4-(4-formyl-4-isobutylpiperidine-1-carbonyl)phenyl)quinoline-8-sulfonamide]: the AC50 at PKR R510Q, at PKR R532W, at PKR WT [1] and on PKR WT [2] was under 100 nM in each case.
Turning to `Cc1cc(F)ccc1C1(O)CCN(C(=O)c2ccc(NS(=O)(=O)c3cccc4cccnc34)cc2)CC1` [Compound 138, N-(4-(4-(4-fluoro-2-methylphenyl)-4-hydroxypiperidine-1-carbonyl)phenyl)quinoline-8-sulfonamide], the AC50 at PKR R510Q, at PKR R532W, on PKR WT [1] and on PKR WT [2] was under 100 nM in each case.
With `CC(C)CC1(O)CCN(C(=O)c2ccc(NS(=O)(=O)c3cccc4cccnc34)cc2)CC1` [Compound 140, N-(4-(4-hydroxy-4-isobutylpiperidine-1-carbonyl)phenyl)quinoline-8-sulfonamide], the AC50 at PKR R510Q, on PKR R532W, at PKR WT [1] and on PKR WT [2] was under 100 nM in each case.
For `Cc1cc(NS(=O)(=O)c2cccc3cccnc23)ccc1C(=O)N1CCC(O)(c2ccccc2Cl)CC1` [Compound 141, N-(4-(4-(2-chlorophenyl)-4-hydroxypiperidine-1-carbonyl)-3-methylphenyl)quinoline-8-sulfonamide], the AC50 on PKR R510Q is 101 to 1000 nM; on PKR R532W, under 100 nM; on PKR WT [1] it was under 100 nM; at PKR WT [2] it was under 100 nM.
As for `O=C(c1ccc(NS(=O)(=O)c2cccc3cccnc23)cc1)N1CCC(O)(c2cccc(F)c2)CC1` [Compound 142, N-(4-(4-(3-fluorophenyl)-4-hydroxypiperidine-1-carbonyl)phenyl)quinoline-8-sulfonamide], the AC50 on PKR R510Q is 101 to 1000 nM; at PKR R532W, under 100 nM; on PKR WT [1] it was under 100 nM; at PKR WT [2], under 100 nM.
Consider `O=C(c1ccc(NS(=O)(=O)c2cccc3cccnc23)c(F)c1)N1CCC(O)(c2ccccc2Cl)CC1` [Compound 143, N-(4-(4-(2-chlorophenyl)-4-hydroxypiperidine-1-carbonyl)-2-fluorophenyl)quinoline-8-sulfonamide], for which the AC50 on PKR R510Q, at PKR R532W, on PKR WT [1] and on PKR WT [2] was under 100 nM each time.
As for `O=C(c1ccc(NS(=O)(=O)c2cccc3cccnc23)cc1)N1CCC(O)(CC2CC2)CC1` [Compound 144, N-(4-(4-(cyclopropylmethyl)-4-hydroxypiperidine-1-carbonyl)phenyl)quinoline-8-sulfonamide], the AC50 at PKR R510Q, on PKR R532W, at PKR WT [1] and on PKR WT [2] was under 100 nM throughout.
With `CC(C)CC1(O)CCN(C(=O)c2ccc(NS(=O)(=O)c3cc(F)cc4sc(N)nc34)cc2)CC1` [Compound 145, 2-amino-6-fluoro-N-(4-(4-hydroxy-4-isobutylpiperidine-1-carbonyl)phenyl)benzo[d]thiazole-4-sulfonamide], the AC50 on PKR R510Q, on PKR R532W, at PKR WT [1] and at PKR WT [2] was under 100 nM in each case.
On to `O=C(c1ccc(NS(=O)(=O)c2cccc3cccnc23)cc1)N1CCC(O)(Cc2cccc(F)n2)CC1` [Compound 146, N-(4-(4-((6-fluoropyridin-2-yl)methyl)-4-hydroxypiperidine-1-carbonyl)phenyl)quinoline-8-sulfonamide], for which the concentration at half-maximal activity (AC50) at PKR R510Q is 101 to 1000 nM; at PKR R532W, under 100 nM; on PKR WT [1], under 100 nM; at PKR WT [2], under 100 nM.
For `Cc1ncccc1C1(O)CCN(C(=O)c2ccc(NS(=O)(=O)c3cccc4cccnc34)cc2)CC1` [Compound 147, N-(4-(4-hydroxy-4-(2-methylpyridin-3-yl)piperidine-1-carbonyl)phenyl)quinoline-8-sulfonamide], the AC50 was 101 to 1000 nM at PKR R510Q, under 100 nM on PKR R532W, under 100 nM on PKR WT [1] and under 100 nM on PKR WT [2].
On to `O=C(c1ccc(NS(=O)(=O)c2cccc3cccnc23)cc1)N1CCC(O)(c2ncccc2F)CC1` [Compound 148, N-(4-(4-(3-fluoropyridin-2-yl)-4-hydroxypiperidine-1-carbonyl)phenyl)quinoline-8-sulfonamide], for which the half-maximal activity concentration (AC50) is 101 to 1000 nM at PKR R510Q, under 100 nM at PKR R532W, under 100 nM on PKR WT [1] and 101 to 1000 nM on PKR WT [2].
For `O=C(c1ccc(NS(=O)(=O)c2cccc3cccnc23)cc1)N1CCC(O)(c2ccccc2OC(F)(F)F)CC1` [Compound 150, N-(4-(4-hydroxy-4-(2-(trifluoromethoxy)phenyl)piperidine-1-carbonyl)phenyl)quinoline-8-sulfonamide], the AC50 is under 100 nM on PKR R510Q, under 100 nM on PKR R532W, under 100 nM on PKR WT [1] and 101 to 1000 nM on PKR WT [2].
`O=C(c1ccc(NS(=O)(=O)c2cccc3cccnc23)cc1OC(F)F)N1CCC(O)(c2ccccc2Cl)CC1` [Compound 151, N-(4-(4-(2-chlorophenyl)-4-hydroxypiperidine-1-carbonyl)-3-(difluoromethoxy)phenyl)quinoline-8-sulfonamide]: the AC50 on PKR R510Q, at PKR R532W, at PKR WT [1] and on PKR WT [2] was under 100 nM each time.
In the case of `O=C(c1ccc(NS(=O)(=O)c2cccc3cccnc23)cc1)N1CCC(O)(Cc2cccc(C(F)(F)F)c2)CC1` [Compound 152, N-(4-(4-hydroxy-4-(3-(trifluoromethyl)benzyl)piperidine-1-carbonyl)phenyl)quinoline-8-sulfonamide], the AC50 is 101 to 1000 nM at PKR R510Q, under 100 nM at PKR R532W, under 100 nM on PKR WT [1] and 101 to 1000 nM on PKR WT [2].
On to `Cc1cccnc1C1(O)CCN(C(=O)c2ccc(NS(=O)(=O)c3cccc4cccnc34)cc2)CC1` [Compound 153, N-(4-(4-hydroxy-4-(3-methylpyridin-2-yl)piperidine-1-carbonyl)phenyl)quinoline-8-sulfonamide], for which the AC50 on PKR R510Q was 101 to 1000 nM; on PKR R532W, under 100 nM; at PKR WT [1] it was under 100 nM; on PKR WT [2], under 100 nM.
In the case of `Nc1nc2c(S(=O)(=O)Nc3ccc(C(=O)N4CCC(O)(c5ccccc5Cl)CC4)cc3)cc(F)cc2s1` [Compound 154, 2-amino-N-(4-(4-(2-chlorophenyl)-4-hydroxypiperidine-1-carbonyl)phenyl)-6-fluorobenzo[d]thiazole-4-sulfonamide], the AC50 on PKR R510Q, on PKR R532W, at PKR WT [1] and on PKR WT [2] was under 100 nM each time.
In the case of `O=C(c1ccc(NS(=O)(=O)c2cccc3scnc23)cc1)N1CCC(O)(c2ccccc2Cl)CC1` [Compound 155, N-(4-(4-(2-chlorophenyl)-4-hydroxypiperidine-1-carbonyl)phenyl)benzo[d]thiazole-4-sulfonamide], the AC50 at PKR R510Q is 101 to 1000 nM; at PKR R532W, under 100 nM; on PKR WT [1], under 100 nM; at PKR WT [2], under 100 nM.
For the compound `O=C(c1ccc(NS(=O)(=O)c2cccc3cccnc23)cc1)N1CCC(O)(c2ccccc2)CC1` [Compound 156, N-(4-(4-hydroxy-4-phenylpiperidine-1-carbonyl)phenyl)quinoline-8-sulfonamide], the AC50 on PKR R510Q was 101 to 1000 nM; on PKR R532W, under 100 nM; at PKR WT [1], under 100 nM; at PKR WT [2] it was under 100 nM.
With `O=C(c1ccc(NS(=O)(=O)c2cccc3cccnc23)cc1Cl)N1CCC(O)(c2ccccc2Cl)CC1` [Compound 157, N-(3-chloro-4-(4-(2-chlorophenyl)-4-hydroxypiperidine-1-carbonyl)phenyl)quinoline-8-sulfonamide], the AC50 on PKR R510Q was 101 to 1000 nM; at PKR R532W, under 100 nM; on PKR WT [1], under 100 nM; on PKR WT [2] it was under 100 nM.
Consider `O=C(c1ccc(NS(=O)(=O)c2cccc3cccnc23)cc1)N1CCC(O)(c2cccnc2C(F)(F)F)CC1` [Compound 159, N-(4-(4-hydroxy-4-(2-(trifluoromethyl)pyridin-3-yl)piperidine-1-carbonyl)phenyl)quinoline-8-sulfonamide], for which the AC50 on PKR R510Q was 101 to 1000 nM; on PKR R532W it was under 100 nM; on PKR WT [1] it was under 100 nM; at PKR WT [2], under 100 nM.
As for `CC(C)CC1(O)CCN(C(=O)c2ccc(NS(=O)(=O)c3cccc4nccnc34)cc2)CC1` [Compound 160, N-(4-(4-hydroxy-4-isobutylpiperidine-1-carbonyl)phenyl)quinoxaline-5-sulfonamide], the AC50 on PKR R510Q, on PKR R532W, at PKR WT [1] and at PKR WT [2] was under 100 nM each time.
